Test results: US8853246B2 (Dow AgroSciences LLC, priority 2009, dated 2014)
Read-outs that look alike come from different tables or passages of the source.

Tests used:
[1] = system: Green Peach Aphid (Myzus Persicae); test: Insecticidal test for green peach aphid in foliar spray assay (col. MYZUPE); type: in vivo; details: Myzus persicae, 72 h, read-out: MYZUPE 200 ppm (Corrected % Control, rating)
Outline: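 Corrected % control derives from microscope counts of live aphids per plant, treated against diluent-only checks, 3 days after foliar spraying at ~25 °C and 40% RH. Test solution was 200 ppm in 0.025% aqueous Tween 20, applied to both leaf sides of infested cabbage seedlings, four pots each.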

[2] = system: Sweetpotato Whitefly-Crawler (Bemisia Tabaci); test: Insecticidal test for sweetpotato whitefly-crawler in foliar spray assay (col. BEMITA); type: in vivo; details: Bemisia tabaci, read-out: BEMITA 200 ppm (Corrected % Control, rating)
Outline: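 Percent control, Abbott-corrected against diluent-sprayed plants, from microscope counts of live nymphs 8-9 days after treatment. Test solution at 200 ppm in 0.025% aqueous Tween 20 applied to both leaf sides of egg-infested cotton after a 5-6 day hatch period (82° F, 50% RH).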

Row | Compound | pest or weed control at 200 ppm ([1]; Abbott's correction formula) | melting point | pest or weed control at 200 ppm ([2]; Abbott's correction formula) | pest or weed control at 200 ppm ([1]; green peach aphid) | pest or weed control at 200 ppm ([2]; sweetpotato whitefly-crawler)
1 | CC(C)(C)OC(=O)Nc1sc(-c2cncc(F)c2)nc1I [Compound 481, tert-butyl 2-(5-fluoropyridin-3-yl)-4-iodothiazol-5-yl carbamate] | < 80% | 148 to 149 °C | < 80% |  | 
2 | C/C=C/C(=O)N(C)c1sc(-c2cccnc2)nc1Br [Compound 526] | 80 to 100% | 121 to 125 °C | 80 to 100% |  | 
3 | Cc1nc(-c2cncc(F)c2)sc1NC(=O)C(C)C [Compound 140] |  | 155 to 159 °C |  | 80 to 100% | < 80%
4 | CN(C(=O)c1cccnc1)c1cnc(-c2cccnc2)s1 [Compound 26] |  | 173 to 175 °C |  | < 80% | < 80%
5 | CSCCC(=O)N(C(=O)OC(C)(C)C)c1sc(-c2cncc(F)c2)nc1C#N [Compound 494] | < 80% | 105 to 106 °C | < 80% |  | 
6 | CN(C(=O)CC(F)(F)F)c1cnc(-c2cccnc2)s1 [Compound 25] |  | 126 to 128 °C |  | 80 to 100% | < 80%
7 | CC(C)(C)OC(=O)N(C(=O)OC(C)(C)C)c1cnc(-c2cncc(F)c2)s1 [Compound 277, di(tert-butyl)2-(5-fluoropyridin-3-yl)-1,3-thiazol-5-ylimidodicarbonate] |  | 94 to 96 °C |  | 80 to 100% | 80 to 100%
8 | CCNC(=S)N(C)c1sc(-c2cccnc2)nc1C [Compound 449] | 80 to 100% | 137 to 140 °C | 80 to 100% |  | 
9 | CCS(=O)(=O)N1CCCC(C(=O)Nc2sc(-c3cccnc3)nc2C)C1 (stereo not drawn) [Compound 388] |  | 190 to 194 °C |  | 80 to 100% | 80 to 100%
10 | CSCC(=O)N(C)c1sc(-c2cccnc2)nc1Cl [Compound 369] |  | 111 to 114 °C |  | 80 to 100% | 80 to 100%
11 | CSCC(C)C(=O)Nc1sc(-c2cccnc2)nc1C (stereo not drawn) [Compound 56] |  | 132 to 136 °C |  | 80 to 100% | 80 to 100%
12 | CN(C(=O)CC[S+](C)[O-])c1sc(-c2cncc(F)c2)nc1F (stereo not drawn) [Compound 392] |  | 113 to 116 °C |  | 80 to 100% | 80 to 100%
13 | CN(C(=O)OC(C)(C)C)c1sc(-c2cncc(F)c2)nc1F [Compound 366] |  | 81 to 84 °C |  | 80 to 100% | 80 to 100%
14 | CC(C)C(=O)N(C)c1cnc(-c2cccnc2)s1 [Compound 24] |  | 113 to 114 °C |  | 80 to 100% | 80 to 100%
15 | Cc1nc(-c2cccnc2)sc1NC(=O)C(C)(C)CS(C)(=O)=O [Compound 101] |  | 134 to 136 °C |  | 80 to 100% | 80 to 100%
16 | CCN(C(=O)c1cn(C)nc1C(F)(F)F)c1sc(-c2cccnc2)nc1Cl [Compound 547] | 80 to 100% | 110 to 111 °C | 80 to 100% |  | 
17 | CSCC(C)C(=O)N(C(=O)OC(C)(C)C)c1sc(-c2ccc(Cl)nc2)nc1C (stereo not drawn) [Compound 153] |  | 82 to 85 °C |  | < 80% | 80 to 100%
18 | CN(C(=O)OC(C)(C)C)c1sc(-c2cncc(F)c2)nc1I [Compound 497] | 80 to 100% | 70 to 71 °C | 80 to 100% |  | 
19 | CCCC(C)(C)OC(=O)N(C)c1sc(-c2cccnc2)nc1C [Compound 491] | 80 to 100% | 65 to 69 °C | 80 to 100% |  | 

Row | Compound | pest or weed control at 200 ppm ([1]; Abbott's correction formula) | melting point | pest or weed control at 200 ppm ([2]; Abbott's correction formula) | pest or weed control at 200 ppm ([1]; green peach aphid) | pest or weed control at 200 ppm ([2]; sweetpotato whitefly-crawler)
20 | Cc1nc(-c2cccnc2)sc1N(C)C(=S)Nc1ccc(Cl)cc1 [Compound 398] |  | 53 to 54 °C |  | < 80% | 80 to 100%
21 | CSCC(C)C(=O)Nc1sc(-c2cncc(F)c2)nc1C (stereo not drawn) [Compound 141] |  | 110 to 113 °C |  | 80 to 100% | 80 to 100%
22 | CCCNC(=O)N(C)c1sc(-c2cccnc2)nc1C [Compound 391] |  | 150 to 151 °C |  | 80 to 100% | 80 to 100%
23 | CSCCC(=O)Nc1sc(-c2cncc(F)c2)nc1Cl [Compound 421] |  | 153 to 154 °C |  | 80 to 100% | < 80%
24 | CN(C(=O)C(C)(C)C)c1cnc(-c2cccnc2)s1 [Compound 23] |  | 102 to 105 °C |  | 80 to 100% | < 80%
25 | Cc1nc(-c2cncc(F)c2)sc1NC(=O)OC(C)(C)C [Compound 309] |  | 160 to 161 °C |  | < 80% | < 80%
26 | CCN(C(=O)c1cscn1)c1sc(-c2cccnc2)nc1Cl [Compound 529] | 80 to 100% | 82 to 86 °C | < 80% |  | 
27 | CSCC(=O)Nc1sc(-c2cccnc2)nc1C [Compound 372] |  | 164 to 167 °C |  | 80 to 100% | 80 to 100%
28 | CC(C)(C)OC(=O)N(COCc1ccccc1)c1cnc(-c2cccnc2)s1 [Compound 265] |  | 98 to 99 °C |  | 80 to 100% | < 80%
29 | CC(CS(C)(=O)=O)C(=O)N(C)c1sc(-c2cnc(Cl)c(F)c2)nc1Cl (stereo not drawn) [Compound 475] | < 80% | 55 to 61 °C | < 80% |  | 
30 | CSC(C)(C)CC(=O)N(C)c1sc(-c2cncc(F)c2)nc1C [Compound 212] |  | 73 to 80 °C |  | 80 to 100% | 80 to 100%
31 | CC(C)C(=O)N(C)c1cnc(-c2cncc(F)c2)s1 [Compound 32] |  | 156 to 158 °C |  | 80 to 100% | 80 to 100%
32 | CCCC(C)OC(=O)Nc1sc(-c2cccnc2)nc1C (stereo not drawn) [Compound 376] |  | 88 to 94 °C |  | 80 to 100% | 80 to 100%
33 | C=CC(=O)Nc1sc(-c2cncc(F)c2)nc1C#N [Compound 502] | < 80% | 231 to 232 °C | < 80% |  | 
34 | CN(C(=O)OC(C)(C)C)c1sc(-c2cncc(F)c2)nc1Cl [Compound 476] | 80 to 100% | 119 to 120 °C | < 80% |  | 
35 | CC(C[S+](C)[O-])C(=O)N(C)c1cnc(-c2cccnc2)s1 (stereo not drawn) [Compound 79] |  | 135 to 140 °C |  | 80 to 100% | < 80%
36 | Cc1nc(-c2cccnc2)sc1NC(=O)c1cccc(SC(F)F)c1 [Compound 381] |  | 158 to 159 °C |  | < 80% | < 80%
37 | CCN(C(=O)c1sc(C)nc1C(F)(F)F)c1sc(-c2cccnc2)nc1Cl [Compound 548] | 80 to 100% | 102 to 103 °C | 80 to 100% |  | 
